Our source for the EC50, IC50 and inhibition values is US9018214B2, “Bicyclic heterocycle compounds and their uses in therapy” (Astex Therapeutics Limited, priority 2011, dated 2015).

Molecules are shown by their SMILES. Structures can show the parent of a compound that is named as a salt. Where two headings read alike, the source gives them in different places.

Assay [1] has as its system EVSA-T (human breast carcinoma). The assay is described as follows: Anti-proliferative activity, Alamar Blue assay, EVSA-T. Type of assay: cell-based. To be noted: Homo sapiens; for inhibition at 10 µM: read-out: EVSA-T prolif: % inhibition.
For assay [2], the target named is BIR3 domain of human cIAP-1 (residues 267-363) (Homo sapiens (Human), UniProt Q13490). The assay is described as follows: cIAP-1 in vitro competitive displacement binding assay (fluorescence polarization; Probe A AVPIK(5&6FAM)-amide or Probe B AbuRPFK(5&6FAM)-amide).
Assay [3] concerns the target BIR3 domain of human XIAP (residues 252-350) (Homo sapiens (Human), UniProt P98170). As to the kind of experiment: XIAP in vitro competitive displacement binding assay (fluorescence polarization). The following applies: for IC50: read-out: IC50 or PI Xiap: IC50; for inhibition at 0.04 µM: 1 h, read-out: IC50 or PI Xiap: PI.
[4] abbreviates: EVSA-T, 72 hours, Alamar Blue, read-out: EVSA-T prolif (EC50).
Where [5] appears, read: Probe B AbuRPFK(5&6FAM)-amide, read-out: IC50 or PI cIAP1: IC50.
[6] abbreviates: read-out: IC50 or PI cIAP1: IC50.
Where [7] appears, read: EVSA-T, 72 h, read-out: EVSA-T prolif (EC50).

As to `CCC1(CC)CN(C(=O)CN2C[C@@H](C)NC[C@@H]2C(=O)N2CCOCC2)c2cc(Cl)ccc21` [Example 135, 1-(6-Chloro-3,3-diethyl-2,3-dihydro-1H-indol-1-yl)-2-[(2R,5R)-5-methyl-2-[(morpholin-4-yl)carbonyl]piperazin-1-yl]ethan-1-one hydrochloride], the EC50 in assay [1] (setting [4]) was found to be 1600 nM. Also, the IC50 is 79 nM in assay [2] (setting [5]) and 400 nM in assay [3].
Turning to `CCCC(F)(F)c1cc2c(cn1)C(C)(C)CN2C(=O)CN1C[C@@H](C)NC[C@@H]1CN1CCCC1=O` [Example 227, 1-{[(2R,5R)-1-{2-[6-(1,1-Difluorobutyl)-3,3-dimethyl-1H,2H,3H-pyrrolo[3,2-c]pyridin-1-yl]-2-oxoethyl}-5-methylpiperazin-2-yl]methyl}pyrrolidin-2-one hydrochloride], the EC50 in assay [1] (setting [4]) turned out to be 27 nM. The inhibition at […] in assay [2] (3 h, Probe B, @ 0.012 μM, read-out: IC50 or PI cIAP1: PI) turned out to be 78%. The inhibition at 0.04 µM in assay [3] amounted to 60%.
`CNS(=O)(=O)c1ccc2c(c1)N(C(=O)CN1C[C@@H](C)NC[C@@H]1COC)CC2(C)C` [Example 61, 1-[2-((2R,5R)-2-Methoxymethyl-5-methyl-piperazin-1-yl)-acetyl]-3,3-dimethyl-2,3-dihydro-1H-indole-6-sulfonic acid methylamide dihydrochloride salt]: the inhibition at 10 µM in assay [1] (EVSA-T) is 0%. Moreover, the IC50 was 1600 nM in assay [2] (setting [6]) and 220 nM in assay [3].
In the case of `C[C@@H]1CN(CC(=O)N2CC(C)(C)c3ccc(Cc4ccccc4)cc32)[C@@H](C(=O)N2CCOCC2)CN1` [Example 111, 1-(6-Benzyl-3,3-dimethyl-2,3-dihydro-indol-1-yl)-2-[(2R,5R)-5-methyl-2-(morpholine-4-carbonyl)-piperazin-1-yl]-ethanone, hydrochloride salt], the EC50 in assay [1] (setting [4]) came out at 71 nM. Further, in assay [2] (3 h, Probe B, @ 0.01 μM, read-out: IC50 or PI cIAP1: PI), the inhibition at 0.01 µM stood at 63%. In assay [3], the IC50 was 74 nM.
Take `C[C@@H]1CN(CC(=O)N2CC(C)(C)c3ncc(C(C)(F)F)cc32)[C@@H](CN2CCc3cccnc32)CN1` [Example 222, 1-[6-(1,1-Difluoroethyl)-3,3-dimethyl-1H,2H,3H-pyrrolo[3,2-b]pyridin-1-yl]-2-[(2R,5R)-5-methyl-2-{1H,2H,3H-pyrrolo[2,3-b]pyridin-1-ylmethyl}piperazin-1-yl]ethan-1-one dihydrochloride]: the concentration giving a half-maximal response (EC50) in assay [1] (setting [7]) was determined as 9600 nM. Moreover, the IC50 in assay [2] was below 1000 nM; in assay [2] (setting [6]) it was 140 nM; in assay [3] it was 220 nM.
Consider `C[C@@H]1CN(CC(=O)N2C[C@](C)(c3ccccc3)c3ccc(C#N)cc32)[C@@H](C(=O)N2CCOCC2)CN1` [Example 153, (3R)-3-Methyl-1-{2-[(2R,5R)-5-methyl-2-[(morpholin-4-yl)carbonyl]piperazin-1-yl]acetyl}-3-phenyl-2,3-dihydro-1H-indole-6-carbonitrile], for which, in assay [1] (setting [4]), the EC50 was determined as 4000 nM. Besides, the IC50 in assay [2] (setting [5]) was determined as 160 nM. Further, the inhibition at 0.04 µM in assay [3] turned out to be 54%.
Take `COC[C@H]1CN[C@H](C)CN1CC(=O)N1CC(C)(c2ccccc2)c2ccc(C#N)cc21` (mixture of isomers) [Example 136, 1-{2-[(2R,5R)-2-(Methoxymethyl)-5-methylpiperazin-1-yl]acetyl}-3-methyl-3-phenyl-2,3-dihydro-1H-indole-6-carbonitrile]: in assay [1] (setting [4]), the EC50 amounted to 2800 nM. Also, the IC50 in assay [3] worked out at 110 nM.
As to `Cc1cnn(C[C@H]2CN[C@H](C)CN2CC(=O)N2CC(C)(C)c3cnc(Cc4ccccc4)cc32)c1` [Example 147, 1-{6-Benzyl-3,3-dimethyl-1H,2H,3H-pyrrolo[3,2-c]pyridin-1-yl}-2-[(2R,5R)-5-methyl-2-[(4-methyl-1H-pyrazol-1-yl)methyl]piperazin-1-yl]ethan-1-one hydrochloride], the EC50 in assay [1] (setting [7]) amounted to 110 nM. Further, the inhibition at 0.04 µM in assay [3] worked out at 49%.
For `C[C@@H]1CN(CC(=O)N2CC(C)(C)c3ncc(Cc4ccc(F)cc4F)cc32)[C@@H](CN2CCCC2=O)CN1` [Example 199, 1-{[(2R,5R)-1-(2-{6-[(2,4-Difluorophenyl)methyl]-3,3-dimethyl-1H,2H,3H-pyrrolo[3,2-b]pyridin-1-yl}-2-oxoethyl)-5-methylpiperazin-2-yl]methyl}pyrrolidin-2-one dihydrochloride], the EC50 in assay [1] (setting [7]) was 5.6 nM. Besides, the IC50 in assay [3] worked out at 63 nM.
With `COC[C@H]1CN[C@H](C)CN1CC(=O)N1C[C@](C)(c2ccccc2)c2ccc(C#N)cc21` [Example 140, (3R)-1-{2-[(2R,5R)-2-(Methoxymethyl)-5-methylpiperazin-1-yl]acetyl}-3-methyl-3-phenyl-2,3-dihydro-1H-indole-6-carbonitrile], the EC50 in assay [1] (EVSA-T cell line, 72 hours, Alamar Blue, read-out: EC50, inhibition of cell growth) is below 10000 nM; in assay [1] (setting [4]), 8600 nM. Moreover, the IC50 in assay [3] was 94 nM.
As to `COC[C@H]1CN[C@H](C)CN1CC(=O)N1CC(C)(C)c2cnc(Cc3cccc(C#N)c3)cc21` [Example 80, 3-[(1-{2-[(2R,5R)-2-(Methoxymethyl)-5-methylpiperazin-1-yl]acetyl}-3,3-dimethyl-1H,2H,3H-pyrrolo[3,2-c]pyridin-6-yl)methyl]benzonitrile hydrochloride salt], the EC50 in assay [1] (setting [7]) amounted to 780 nM. Besides, in assay [2] (setting [5]), the IC50 was determined as 33 nM.
As for `COC[C@H]1CN[C@H](C)CN1CC(=O)N1CC(C)(C)c2cc(-c3nc(C)no3)c(Cl)cc21` [Example 141, 1-[6-Chloro-3,3-dimethyl-5-(3-methyl-1,2,4-oxadiazol-5-yl)-2,3-dihydro-1H-indol-1-yl]-2-[(2R,5R)-2-(methoxymethyl)-5-methylpiperazin-1-yl]ethan-1-one], the EC50 is below 10000 nM in assay [1] (EVSA-T, 72 h, read-out: EC50, inhibition of cell growth) and 9000 nM in assay [1] (setting [7]). The IC50 in assay [2] (setting [5]) came out at 280 nM.
As to `CCC(F)(F)c1cnc2c(c1)N(C(=O)CN1C[C@@H](C)NC[C@@H]1CN1CCCC1=O)CC2(C)C` [Example 190, 1-{[(2R,5R)-1-{2-[6-(1,1-Difluoropropyl)-3,3-dimethyl-1H,2H,3H-pyrrolo[3,2-b]pyridin-1-yl]-2-oxoethyl}-5-methylpiperazin-2-yl]methyl}pyrrolidin-2-one hydrochloride], the EC50 in assay [1] (setting [7]) was found to be 400 nM. In assay [2] (setting [6]), the IC50 was 29 nM.
For the compound `C[C@@H]1CN(CC(=O)N2CCc3cnc(Cc4ccccc4)cc32)CCN1` [Example 35, 1-(6-Benzyl-2,3-dihydro-pyrrolo[3,2-c]pyridin-1-yl)-2-((R)-3-methyl-piperazin-1-yl)-ethanone hydrochloride salt], in assay [1] (EVSA-T), the inhibition at 10 µM worked out at 28%. Also, the IC50 in assay [2] was below 1000 nM; in assay [2] (Probe A AVPIK(5&6FAM)-amide, read-out: IC50 or PI cIAP1: IC50), 960 nM.
On to `C[C@@H]1CN(CC(=O)N2CC(C)(C)c3ncc(Cc4ccc(F)cc4)cc32)[C@@H](CN2CCOCC2)CN1` [Example 234, 1-{6-[(4-Fluorophenyl)methyl]-3,3-dimethyl-1H,2H,3H-pyrrolo[3,2-b]pyridin-1-yl}-2-[(2R,5R)-5-methyl-2-(morpholin-4-ylmethyl)piperazin-1-yl]ethan-1-one dihydrochloride], for which the EC50 in assay [1] (setting [7]) was 9.6 nM. For the same compound, the IC50 in assay [3] is 74 nM.
As for `COC[C@H]1CN[C@H](C)CN1CC(=O)N1CC(C)(C)c2cnc(Cc3cccc(OC)c3)cc21` [Example 89, 2-[(2R,5R)-2-(Methoxymethyl)-5-methylpiperazin-1-yl]-1-{6-[(3-methoxyphenyl)methyl]-3,3-dimethyl-1H,2H,3H-pyrrolo[3,2-c]pyridin-1-yl}ethan-1-one, hydrochloride salt], in assay [1] (setting [7]), the EC50 was 990 nM. The IC50 in assay [2] (setting [5]) is 16 nM.
